Counter-ions that a name gives are not always drawn.
Experiments:
High fat diet-fed mice = assay: Fecal protein concentration-increasing test using high fat diet-fed mouse; type: in vivo; settings: Mus musculus, po, 24 h, feces of first day of administration, vehicle group = 100, read-out: Fecal protein concentration-increasing rate; for response vs control in vivo at 30 mg/kg: 30 mg/kg oral
From the text: Test Example 2: Fecal Protein Concentration-Increasing Test Using High Fat Diet-Fed Mouse
High fat diet-fed mice (D12451 diet, male, 10- to 50-week old) were orally administered with a 0.5% methyl cellulose suspension containing a test compound (compound administration group, five mice per group) or a 0.5% methyl cellulose suspension (compound non-administration group (vehicle group), five mice per group), and whole feces were collected on the first day of administration. Dried feces were dissolved in 0.5 N NaOH, followed by centrifugation at 12,000 rpm. The protein concentration in the supernatant was then quantitatively measured (Lowry method), and the amount of protein contained in 1 g of feces was calculated as the fecal protein concentration (mg/g feces). The fecal protein concentration-increasing rate was calculated by the following expression.
Fecal protein concentration-increasing rate (%)=Fecal protein concentration of compound administration group/Fecal protein concentration of vehicle group×100

[1] = target: T1, Human recombinant enteropeptidase (Homo sapiens, UniProt P98073); assay: Human enteropeptidase inhibitory activity; type: biochemical; settings: 1 μM test compound; fluorescence intensity at 2 hours after start of reaction; read-out: Inhibition rate at 1 μM
T1 construct: purchased ITSI-Biosciences LLC #REN-260
T1 sequence (P98073 whole entry): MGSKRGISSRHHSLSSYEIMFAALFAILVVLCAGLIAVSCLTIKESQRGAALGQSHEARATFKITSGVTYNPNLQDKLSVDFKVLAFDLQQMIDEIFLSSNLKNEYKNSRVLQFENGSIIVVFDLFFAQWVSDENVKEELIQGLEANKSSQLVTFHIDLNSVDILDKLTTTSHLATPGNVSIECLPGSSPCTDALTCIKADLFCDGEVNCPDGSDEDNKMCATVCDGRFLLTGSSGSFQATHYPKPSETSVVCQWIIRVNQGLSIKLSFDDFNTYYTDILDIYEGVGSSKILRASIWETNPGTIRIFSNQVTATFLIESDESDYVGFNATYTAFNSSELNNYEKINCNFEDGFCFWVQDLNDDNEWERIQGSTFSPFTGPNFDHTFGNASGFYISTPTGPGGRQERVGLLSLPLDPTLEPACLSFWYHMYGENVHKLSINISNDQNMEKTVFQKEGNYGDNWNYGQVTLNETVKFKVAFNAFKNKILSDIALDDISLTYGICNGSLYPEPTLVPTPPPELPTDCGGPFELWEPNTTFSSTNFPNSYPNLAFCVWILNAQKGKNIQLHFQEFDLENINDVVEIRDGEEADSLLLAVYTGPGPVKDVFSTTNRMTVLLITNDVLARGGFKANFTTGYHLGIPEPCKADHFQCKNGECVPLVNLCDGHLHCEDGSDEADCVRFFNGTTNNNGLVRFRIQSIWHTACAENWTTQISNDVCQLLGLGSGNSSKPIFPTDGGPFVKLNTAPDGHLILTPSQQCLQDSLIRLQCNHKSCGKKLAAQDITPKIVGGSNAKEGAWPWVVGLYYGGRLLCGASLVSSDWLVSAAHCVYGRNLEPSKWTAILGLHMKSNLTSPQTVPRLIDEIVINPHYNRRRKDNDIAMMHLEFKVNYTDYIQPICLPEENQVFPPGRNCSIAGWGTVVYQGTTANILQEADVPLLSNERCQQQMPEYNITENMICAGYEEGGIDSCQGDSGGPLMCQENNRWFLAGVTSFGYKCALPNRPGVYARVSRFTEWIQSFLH
Experimental: Test Example 1: Human Enteropeptidase Inhibitory Activity
Human recombinant enteropeptidase (#REN-260, ITSI-Biosciences LLC) was diluted with an assay buffer (50 mM Tricine, pH 8.0, 0.01 (w/v) %, Tween 20, 10 mM CaCl2)) to prepare a 24 mU/mL enzyme solution. Subsequently, 5FAM-Abu-Gly-Asp-Asp-Asp-Lys-Ile-Val-Gly-Gly-Lys(CPQ2)-Lys-Lys-NH2 (CPC Scientific Inc.) was diluted with the assay buffer to prepare a 2.1 μM substrate solution. A test compound is dissolved in DMSO into a 10 mM solution, and the solution was diluted with the assay buffer to give a compound solution. To a 384-well black plate (#784076, Greiner Bio-One), 5 μL of the compound solution and 5 μL of the substrate solution were added and mixed, and 5 μL of the enzyme solution was then added to the mixture, followed by mixing to start the reaction. The fluorescence intensity was measured with a fluorescence plate reader EnVision (The Perkin-Elmer Corp.) at an excitation wavelength of 485 nm and a fluorescence wavelength of 535 nm. The same reaction as above was performed without the addition of the test compound (test compound non-addition group). Furthermore, the same reaction as above was performed without the addition of the test compound and the enzyme (control group). The inhibition rate was calculated using the fluorescence intensity at 2 hours after the start of the reaction by the following expression:
Inhibition rate (%)=(1−((fluorescence intensity of test compound addition group)−(fluorescence intensity of control group))/((fluorescence intensity of test compound non-addition group)−(fluorescence intensity of control group)))×100

[2] = tested on: Diet-induced obesity (DIO) mice; assay: Anti-obesity effect test using DIO mouse; type: in vivo; settings: for Body weight (g) At start of administration: average at start of administration; for Body weight (g) After 7-day administration: average; for Fecal protein concentration-increasing rate (%): feces of eighth day, vehicle = 100
Experimental: Test Example 3: Anti-Obesity Effect Test Using DIO Mouse
Diet-induced obesity (DIO) mice (D12451 diet, male, 26-week old) were orally administered with a 0.5% methyl cellulose suspension containing a test compound (30 mg/kg) (compound administration group, five mice per group) or a 0.5% methyl cellulose suspension (compound non-administration group (vehicle), five mice per group) once a day for seven days, and whole feces were collected on the eighth day of administration. Dried feces were dissolved in 0.5 N NaOH, followed by centrifugation at 12,000 rpm. The protein concentration in the supernatant was then quantitatively measured (Lowry method), and the amount of protein contained in 1 g of feces was calculated as the fecal protein concentration (mg/g feces). The fecal protein concentration-increasing rate was calculated by the following expression.
Fecal protein concentration-increasing rate (%)=Fecal protein concentration of compound administration group/Fecal protein concentration of vehicle group X 100
The fecal protein concentration-increasing rate and the averages of the body weights at the start of administration and after administration for seven days are shown in Table 6.
Also, DIO mice (D12451 diet, male, 59-week old) were orally administered with a 0.5% methyl cellulose suspension containing a test compound (20 mg/kg) (compound administration group, five mice per group) or a 0.5% methyl cellulose suspension (compound non-administration group (vehicle), five mice per group) once a day for seven days, and whole feces were collected on the eighth day of administration. The fecal protein concentration (mg/g feces) was calculated by the method described above. The fecal protein concentration-increasing rate and the averages of the body weights at the start of administration and after administration for seven days are shown in Table 7.

[3] = DIO mice 26-week old, 30 mg/kg group
[4] = DIO mice 26-week old, 30 mg/kg oral once a day for seven days
[5] = DIO mice 59-week old, 20 mg/kg group
[6] = DIO mice 59-week old, 20 mg/kg oral once a day for seven days

inhibition at 1 µM [1] [%]	SMILES	response vs control in vivo at 30 mg/kg (High fat diet-fed mice) [%]	Body weight (g) At start of administration [2, 3] [g]	Body weight (g) After 7-day administration [2, 4] [g]	Fecal protein concentration-increasing rate (%) [2, 4] [%]	Body weight (g) At start of administration [2, 5] [g]	Body weight (g) After 7-day administration [2, 6] [g]	Fecal protein concentration-increasing rate (%) [2, 6] [%]	response vs control in vivo at 10 mg/kg (High fat diet-fed mice; 10 mg/kg oral) [%]
100	N=C(N)Nc1ccc(C(=O)Oc2ccc(CCC(=O)N[C@@H](CC(=O)O)C(=O)O)c(OCCOCCOCCOc3cc(OC(=O)c4ccc(NC(=N)N)cc4)ccc3CCC(=O)N[C@@H](CC(=O)O)C(=O)O)c2)cc1 [Example 12, (2S)-2-[3-[2-[2-[2-[2-[2-[3-[[(1S)-1,2-Dicarboxyethyl]amino]-3-oxopropyl]-5-(4-guanidinobenzoyl)oxyphenoxy]ethoxy]ethoxy]ethoxy]-4-(4-guanidinobenzoyl)oxyphenyl]propanoylamino]butanedioic acid dihydrochloride]	197	45.4	44.7	280	–	–	–	–
100	N=C(N)Nc1ccc(C(=O)Oc2ccc(C(=O)N[C@H](CC(=O)O)C(=O)O)c(OCCOCCOc3cc(OC(=O)c4ccc(NC(=N)N)cc4)ccc3C(=O)N[C@H](CC(=O)O)C(=O)O)c2)cc1 [Example 21, (2R)-2-[[2-[2-[2-[2-[[(1R)-1,2-Dicarboxyethyl]carbamoyl]-5-(4-guanidinobenzoyl)oxyphenoxy]ethoxy]ethoxy]-4-(4-guanidinobenzoyl)oxybenzoyl]amino]butanedioic acid dihydrochloride]	203	–	–	–	56.7	53.6	248	–
100	Cl.Cl.N=C(N)Nc1ccc(C(=O)Oc2cc(OCCOCCOc3cc(OC(=O)c4ccc(NC(=N)N)cc4)cc(C(=O)N[C@H](CC(=O)O)C(=O)O)c3)cc(C(=O)N[C@H](CC(=O)O)C(=O)O)c2)cc1 [Example 15, (2R)-2-[[3-[2-[2-[3-[[(1R)-1,2-Dicarboxyethyl]carbamoyl]-5-(4-guanidinobenzoyl)oxyphenoxy]ethoxy]ethoxy]-5-(4-guanidinobenzoyl)oxybenzoyl]amino]butanedioic acid dihydrochloride]	212	46.0	43.4	250	56.6	54.0	227	–
100	N=C(N)Nc1ccc(C(=O)Oc2cc(OCCOc3cc(OC(=O)c4ccc(NC(=N)N)cc4)cc(C(=O)N[C@H](CC(=O)O)C(=O)O)c3)cc(C(=O)N[C@H](CC(=O)O)C(=O)O)c2)cc1 [Example 16, (2R)-2-[[3-[2-[3-[[(1R)-1,2-Dicarboxyethyl]carbamoyl]-5-(4-Guanidinobenzoyl)oxyphenoxy]ethoxy]-5-(4-guanidinobenzoyl)oxybenzoyl]amino]butanedioic acid dihydrochloride]	245	45.7	44.7	271	–	–	–	–
100	N=C(N)Nc1ccc(C(=O)Oc2cc(OCCOCCOc3cc(OC(=O)c4ccc(NC(=N)N)cc4)cc(C(=O)N[C@@H](CC(=O)O)C(=O)O)c3)cc(C(=O)N[C@@H](CC(=O)O)C(=O)O)c2)cc1 [Example 8, (2S)-2-[[3-[2-[2-[3-[[(1S)-1,2-Dicarboxyethyl]carbamoyl]-5-(4-guanidinobenzoyl)oxyphenoxy]ethoxy]ethoxy]-5-(4-guanidinobenzoyl)oxybenzoyl]amino]butanedioic acid ditrifluoroacetate]	210	–	–	–	–	–	–	–
99	N=C(N)Nc1ccc(C(=O)Oc2cc(OCCOCCOCCOc3cc(OC(=O)c4ccc(NC(=N)N)cc4)cc(C(=O)N(CC(=O)O)CC(=O)O)c3)cc(C(=O)N(CC(=O)O)CC(=O)O)c2)cc1 [Example 5, 2-[[3-[2-[2-[2-[3-[Bis(carboxymethyl)carbamoyl]-5-(4-guanidinobenzoyl)oxyphenoxy]ethoxy]ethoxy]ethoxy]-5-(4-guanidinobenzoyl)oxybenzoyl]-(carboxymethyl)amino]acetic acid ditrifluoroacetate]	158	–	–	–	–	–	–	–
100	N=C(N)c1ccc(OC(=O)c2cc(OCCOCCOCCOc3cc(C(=O)N[C@@H](CC(=O)O)C(=O)O)cc(C(=O)Oc4ccc(C(=N)N)cc4)c3)cc(C(=O)N[C@@H](CC(=O)O)C(=O)O)c2)cc1 [Example 7, (2S)-2-[[3-(4-Carbamimidoylphenoxy)carbonyl-5-[2-[2-[2-[3-(4-carbamimidoylphenoxy)carbonyl-5-[[(1S)-1,2-dicarboxyethyl]carbamoyl]phenoxy]ethoxy]ethoxy]ethoxy]benzoyl]amino]butanedioic acid ditrifluoroacetate]	115	–	–	–	–	–	–	–
99	N=C(N)Nc1ccc(C(=O)Oc2cc(OCCOCCOc3cc(OC(=O)c4ccc(NC(=N)N)cc4)cc(C(=O)NCCS(=O)(=O)O)c3)cc(C(=O)NCCS(=O)(=O)O)c2)cc1 [Example 20, 2-[[3-(4-Guanidinobenzoyl)oxy-5-[2-[2-[3-(4-guanidinobenzoyl)oxy-5-(2-sulfoethylcarbamoyl)phenoxy]ethoxy]ethoxy]benzoyl]amino]ethanesulfonic acid ditrifluoroacetate]	–	–	–	–	–	–	–	143
98	N=C(N)Nc1ccc(C(=O)Oc2cc(OCCOCCOCCOCCOCCOc3cc(OC(=O)c4ccc(NC(=N)N)cc4)cc(C(=O)N[C@@H](CC(=O)O)C(=O)O)c3)cc(C(=O)N[C@@H](CC(=O)O)C(=O)O)c2)cc1 [Example 2, (2S)-2-[[3-[2-[2-[2-[2-[2-[3-[[(1S)-1,2-Dicarboxyethyl]carbamoyl]-5-(4-guanidinobenzoyl)oxyphenoxy]ethoxy]ethoxy]ethoxy]ethoxy]ethoxy]-5-(4-guanidinobenzoyl)oxybenzoyl]amino]butanedioic acid]	142	–	–	–	–	–	–	–
98	N=C(N)Nc1ccc(C(=O)Oc2cc(OCCOCCOCCOCCOCCOCCOCCOc3cc(OC(=O)c4ccc(NC(=N)N)cc4)cc(C(=O)N[C@@H](CC(=O)O)C(=O)O)c3)cc(C(=O)N[C@@H](CC(=O)O)C(=O)O)c2)cc1 [Example 3, (2S)-2-[[3-[2-[2-[2-[2-[2-[2-[2-[3-[[(1S)-1,2-Dicarboxyethyl]carbamoyl]-5-(4-guanidinobenzoyl)oxyphenoxy]ethoxy]ethoxy]ethoxy]ethoxy]ethoxy]ethoxy]ethoxy]-5-(4-guanidinobenzoyl)oxybenzoyl]amino]butanedioic acid]	152	–	–	–	–	–	–	–

Reference: US20210403420A1, “BENZOATE COMPOUND” (SCOHIA PHARMA, INC., priority 2018, published 2021)
